# Results taken from patent publication US20010053796A1, “Delta-aminolevulinic acid for prevention and treatment of infection microorganisms and parasite” (priority 2000, published 2001).
# What was measured:
# Vibrio anguillarum = assay: MIC assay by flat drug disc method; format: cell-based; conditions: prepared by the inventors
# Method: (§1) Pathogenic index bacteria used in this experiment are Edwardsiella tard, Streptococcus sp., Staphylococcus sp., Staphylococcus epidermidis, Pseudomonas sp., Vibrio anguillarum which are collected from the marine fish farm nearby Yeosu. In solid culture, they were cultured in TSA (tryptic soy agar) supplemented with 0.2% NaCl flat media and in liquid culture, they were prepared by culturing in BHI broth for 24 hrs and setting the O.D. value as 1.0. δ-aminolevulinic acid used in this experiment were one on the market (Sigma) and one formulated by inventors of the present invention (Korean patent application No. 1998-41898). Each 0.167 g δ-aminolevulinic acid were dissolved in 1.0 mL sterilized distilled water was used as undiluted solution. 1.0 M δ-aminolevulinic acid was 2-fold diluted with BHI broth by stages up to 64-fold and prepared for test solution to examine pathogenic bacteria proliferation-prohibiting effect. […] In control group, instead of δ-aminolevulinic acid, BHI broth bacteria suspension were mixed with (1:1) and then observed with the same method above. MIC assay by δ-aminolevulinic acid for major pathogenic bacteria of marine cultivating fishes, Edwardsiella tard, Streptococcus sp., Staphylococcus sp., Staphylococcus epidermidis, Pseudomonas sp., Vibrio anguillarum was carried out by flat drug disc method. 100 μL of each bacteria in a culture solution was mixed with fixed amount of top agar and coated to TSA agar. 1.0 M δ-aminolevulinic acid solution was diluted by 2 folds in PBS and 10 μL of each dilution were absorbed to sterilized disc. After incubation at 23˜25° C. for 2˜3 days, antibacterial effect was indicated by measuring the size (mm) of clear zone. In control group, PBS was absorbed into disc instead of δ-aminolevulinic acid dilution solution with the same amount and observed. From the result of this experiment using δ-aminolevulinic acid on the market, proliferation-inhibiting effects of pathogenic bacteria according to δ-aminolevulinic acid concentration are shown in Table 2a (Edwardsiella tard) and Table 2b (Streptococcus sp.). Below 1/32 fold (31 mM) of δ-aminolevulinic acid dilution rate, proliferation of both bacteria was inhibited. […] The experimental result of δ-aminolevulinic acid prepared by the inventors has shown in Table 3 and no difference in effects from δ-aminolevulinic acid on the market.
# [1] = tested on: Staphylococcus epidermidis; assay: MIC assay by flat drug disc method; format: cell-based; conditions: prepared by the inventors
# Method: as §1
# Staphylococcus sp. [2] = assay: MIC assay by flat drug disc method; format: cell-based; conditions: Staphylococcus sp. (second of two lines); prepared by the inventors
# Method: as §1
# Edwardsiella tarda [3] = assay: MIC assay by flat drug disc method; format: cell-based; conditions: prepared by the inventors
# Method: as §1
# Pseudomonas sp. [4] = assay: MIC assay by flat drug disc method; format: cell-based; conditions: prepared by the inventors
# Method: as §1
# Streptococcus sp. [5] = assay: MIC assay by flat drug disc method; format: cell-based; conditions: line printed Staphylococcus sp. (first of two), prepared by the inventors
# Method: as §1
# Pseudomonas sp. [6] = assay: Prevention effect for artificial infection (abdominal injection of bacteria); format: in vivo, Sebastes schlegeli; conditions: for Mortality during Cultivation: dead of 20 fish
# Method: The water temperature was maintained at 20° C. (±2° C. ) throughout the experiment.
# As the same method of above Experiment 1, fishes of both control group and experiment group were prepared and artificially infected by direct abdominal injection of Edwardsiella tarda 10^5 CFU per 1 fish. Each experimental fish was moved to fish tanks for monitoring and monitored for mortality according to infection for 2 weeks and viability after 2 weeks.
# Bastardhalibut and Sebastes schlegeli were infected by Pseudomonas sp. through abdominal injection with the same method of fish breeding; δ-aminolevulinic acid treatment and artificial infection carried out in Experiment 1 and 2. Each experimental fish was moved to fish tanks for monitoring and monitored for mortality according to infection for 2 weeks.
# Staphylococcus sp. [7] = assay: Treatment effect of infected fry by oral administration in feed; format: in vivo, Bastardhalibut; conditions: 50 fish
# Method: (§2) In this example, fry of Bastardhalibut and Sebastes schlegeli (mean body weight 2 g), 50 per each breeding tank, were preliminary-bred for 1 week and stabilized. […] The artificial infection methods were carried out through the digestion method. Pathogenic organisms were applied into fish tanks and introduced into seawater for an hour, wherein the concentration of organisms adjusted to 10^4 CFU/mL. Treatment conditions are as follows; after artificial infection, infected fish were moved to fish tanks and kept in the infection period for 3 days. […] The fish were bred for 2 weeks after exchanging with clean seawater and the mortality of fish according to infection was monitored. In the control groups, after each bacteria were identically infected through digestion method, mortality of Bastardhalibut and Sebastes schlegeli according to bacteria infection was identified while breeding with marketing assorted feed without δ-aminolevulinic acid. As a result of this experiment, δ-aminolevulinic acid-treated groups have shown high viability in both Bastardhalibut (Table 20˜Table 23) and Sebastes schlegeli (Table 24˜Table 27).
# Staphylococcus epidermis = assay: as above; format: in vivo, Bastardhalibut; conditions: 50 fish
# Method: as §2
# Edwardsiella tarda [8] = assay: as above; format: in vivo, Bastardhalibut; conditions: 50 fish
# Method: as §2
# Pseudomonas sp. [9] = assay: as above; format: in vivo, Bastardhalibut; conditions: 50 fish
# Method: as §2
# Streptococcus sp. [10] = assay: as above; format: in vivo, Bastardhalibut; conditions: 50 fish
# Method: as §2
# [11] = orally, 1.0 ppm in feed, Sebastes schlegeli
# [12] = orally, 10 ppm in feed, Sebastes schlegeli
# [13] = orally, 100 ppm in feed, Sebastes schlegeli
# [14] = to fish tanks, 0.01 ppm, Sebastes schlegeli
# [15] = to fish tanks, 0.1 ppm, Sebastes schlegeli
# [16] = to fish tanks, 1.0 ppm, Sebastes schlegeli
# [17] = feed 0.1 ppm from 4th day of infection
# [18] = feed 1.0 ppm from 4th day of infection
# [19] = feed 50 ppm from 4th day of infection
# [20] = feed 100 ppm from 4th day of infection
structure (smiles),measurement,setting,value
NCC(=O)CCC(=O)O [δ-aminolevulinic acid],MIC,Vibrio anguillarum,29.9 µg/mL
same,MIC,[1],62 µg/mL
same,MIC,Staphylococcus sp. [2],59.6 µg/mL
same,MIC,Edwardsiella tarda [3],56 µg/mL
same,MIC,Pseudomonas sp. [4],42.2 µg/mL
same,MIC,Streptococcus sp. [5],72.9 µg/mL
same,Viability,"Pseudomonas sp. [6]; orally, 0.1 ppm in feed",60%
same,Mortality during Cultivation,"Pseudomonas sp. [6]; orally, 0.1 ppm in feed",8
same,Viability,Pseudomonas sp. [6]; [11],60%
same,Mortality during Cultivation,Pseudomonas sp. [6]; [11],8
same,Viability,Pseudomonas sp. [6]; [12],85%
same,Mortality during Cultivation,Pseudomonas sp. [6]; [12],3
same,Viability,Pseudomonas sp. [6]; [13],85%
same,Mortality during Cultivation,Pseudomonas sp. [6]; [13],3
same,Viability,Pseudomonas sp. [6]; [14],55%
same,Mortality during Cultivation,Pseudomonas sp. [6]; [14],9
same,Viability,Pseudomonas sp. [6]; [15],55%
same,Mortality during Cultivation,Pseudomonas sp. [6]; [15],9
same,Viability,Pseudomonas sp. [6]; [16],85%
same,Mortality during Cultivation,Pseudomonas sp. [6]; [16],3
same,Viability,"Pseudomonas sp. [6]; to fish tanks, 10 ppm",90%
same,Mortality during Cultivation,"Pseudomonas sp. [6]; to fish tanks, 10 ppm",2
same,Viability,Staphylococcus sp. [7]; [17],42%
same,Viability,Staphylococcus sp. [7]; [18],72%
same,Viability,Staphylococcus sp. [7]; [19],92%
same,Viability,Staphylococcus sp. [7]; [20],86%
same,Viability,Staphylococcus epidermis; [17],42%
same,Viability,Staphylococcus epidermis; [18],68%
same,Viability,Staphylococcus epidermis; [19],94%
same,Viability,Staphylococcus epidermis; [20],86%
same,Viability,Edwardsiella tarda [8]; [17],42%
same,Viability,Edwardsiella tarda [8]; [18],68%
same,Viability,Edwardsiella tarda [8]; [19],92%
same,Viability,Edwardsiella tarda [8]; [20],82%
same,Viability,Pseudomonas sp. [9]; [17],42%
same,Viability,Pseudomonas sp. [9]; [18],68%
same,Viability,Pseudomonas sp. [9]; [19],88%
same,Viability,Pseudomonas sp. [9]; [20],82%
same,Viability,Streptococcus sp. [10]; [17],36%
same,Viability,Streptococcus sp. [10]; [18],74%
same,Viability,Streptococcus sp. [10]; [19],90%
same,Viability,Streptococcus sp. [10]; [20],86%
